Among the data in PubChem BioAssay AID1259407 (Chemical Carcinogenesis Research Information System (CCRIS), 2018) are mutagenic call values, retold here.

In the series the test system is CCRIS mutagenicity, Ames/micronucleus/aberration tests. The experiment in a line: CCRIS mutagenicity studies.
The mark [1] stands for this setting: Test System: AMES SALMONELLA TYPHIMURIUM, Strain/Indicator: TA98, Metabolic Activation: HAMSTER, LIVER, S-9, AROCLOR 1254 (10%), Method: PREINCUBATION
Where [2] appears, read: Test System: AMES SALMONELLA TYPHIMURIUM, Strain/Indicator: TA98, Metabolic Activation: NONE, Method: PREINCUBATION
Setting [3] is: Test System: AMES SALMONELLA TYPHIMURIUM, Strain/Indicator: TA100, Metabolic Activation: HAMSTER, LIVER, S-9, AROCLOR 1254 (10%), Method: PREINCUBATION
Where [4] appears, read: Test System: AMES SALMONELLA TYPHIMURIUM, Strain/Indicator: TA100, Metabolic Activation: NONE, Method: PREINCUBATION
Where [5] appears, read: Test System: AMES SALMONELLA TYPHIMURIUM, Strain/Indicator: TA100, Metabolic Activation: RAT, LIVER, S-9, AROCLOR 1254 (10%), Method: PREINCUBATION
Setting [6] is: Test System: AMES SALMONELLA TYPHIMURIUM, Strain/Indicator: TA1535, Metabolic Activation: HAMSTER, LIVER, S-9, AROCLOR 1254 (10%), Method: PREINCUBATION
Where [7] appears, read: Test System: AMES SALMONELLA TYPHIMURIUM, Strain/Indicator: TA1535, Metabolic Activation: NONE, Method: PREINCUBATION
[8] abbreviates: Test System: AMES SALMONELLA TYPHIMURIUM, Strain/Indicator: TA1535, Metabolic Activation: RAT, LIVER, S-9, AROCLOR 1254 (10%), Method: PREINCUBATION
Where [9] appears, read: Test System: AMES SALMONELLA TYPHIMURIUM, Strain/Indicator: TA1537, Metabolic Activation: HAMSTER, LIVER, S-9, AROCLOR 1254 (10%), Method: PREINCUBATION
Setting [10] is: Test System: AMES SALMONELLA TYPHIMURIUM, Strain/Indicator: TA1537, Metabolic Activation: NONE, Method: PREINCUBATION
[11] abbreviates: Test System: AMES SALMONELLA TYPHIMURIUM, Strain/Indicator: TA1537, Metabolic Activation: RAT, LIVER, S-9, AROCLOR 1254 (10%), Method: PREINCUBATION

Structures are written as SMILES. Active and inactive are the calls of the source. No rule for the calls is given here.

As to `C1=CC2C3C=CC(C3)C2C1` (centres undefined), the mutagenic call is, setting by setting: under setting [1], “inactive; negative”; under setting [2], “inactive; negative”; (Test System: AMES SALMONELLA TYPHIMURIUM, Strain/Indicator: TA98, Metabolic Activation: RAT LIVER S-9, PHENOBARBITAL AND BETA-NAPHTHOFLAVONE, Method: PREINCUBATION) “inactive; negative”; (Test System: AMES SALMONELLA TYPHIMURIUM, Strain/Indicator: TA98, Metabolic Activation: RAT, LIVER, S-9, AROCLOR 1254 (10%), Method: PREINCUBATION) “inactive; negative”; under setting [3], “inactive; negative”; under setting [4], “inactive; negative”. The mutagenic call runs as follows: (Test System: AMES SALMONELLA TYPHIMURIUM, Strain/Indicator: TA100, Metabolic Activation: RAT LIVER S-9, PHENOBARBITAL AND BETA-NAPHTHOFLAVONE, Method: PREINCUBATION) “inactive; negative”; under setting [5], “inactive; negative”; under setting [6], “inactive; negative”; under setting [7], “inactive; negative”; (Test System: AMES SALMONELLA TYPHIMURIUM, Strain/Indicator: TA1535, Metabolic Activation: RAT LIVER S-9, PHENOBARBITAL AND BETA-NAPHTHOFLAVONE, Method: PREINCUBATION) “inactive; negative”; under setting [8], “inactive; negative”. The mutagenic call was “inactive; negative” under setting [9]; “inactive; negative” under setting [10]; “inactive; negative” (Test System: AMES SALMONELLA TYPHIMURIUM, Strain/Indicator: TA1537, Metabolic Activation: RAT LIVER S-9, PHENOBARBITAL AND BETA-NAPHTHOFLAVONE, Method: PREINCUBATION); “inactive; negative” under setting [11]; “inactive; negative” (Test System: E.COLI, Strain/Indicator: WP2UVRA, Metabolic Activation: NONE, Method: PREINCUBATION); “inactive; negative” (Test System: E.COLI, Strain/Indicator: WP2UVRA, Metabolic Activation: RAT LIVER S-9, PHENOBARBITAL AND BETA-NAPHTHOFLAVONE, Method: PREINCUBATION).

As to `OC/C(Br)=C(\Br)CO`, the mutagenic call under setting [1] is “active; positive”; the mutagenic call under setting [2] is “inactive; negative”; the mutagenic call (Test System: AMES SALMONELLA TYPHIMURIUM, Strain/Indicator: TA98, Metabolic Activation: RAT, LIVER, S-9, AROCLOR 1254, Method: PREINCUBATION) was “active; positive”; the mutagenic call under setting [3] is “active; positive”; the mutagenic call under setting [4] is “inactive; negative”; the mutagenic call under setting [5] is “active; positive”. Besides, the mutagenic call under setting [6] is “active; positive”; the mutagenic call under setting [7] is “inactive; negative”; the mutagenic call under setting [8] is “active; positive”; the mutagenic call under setting [9] is “active; positive”; the mutagenic call under setting [10] is “inactive; negative”; the mutagenic call under setting [11] was “inactive; negative”.

On to `CC(C)c1c(N)ccc2ccccc12`, for which the mutagenic call is “inactive; negative” (Test System: AMES SALMONELLA TYPHIMURIUM, Strain/Indicator: TA98, Metabolic Activation: NONE, Method: STANDARD PLATE); “active; positive” (Test System: AMES SALMONELLA TYPHIMURIUM, Strain/Indicator: TA98, Metabolic Activation: RAT LIVER S-9, AROCLOR, Method: STANDARD PLATE); “inactive; negative” (Test System: AMES SALMONELLA TYPHIMURIUM, Strain/Indicator: TA100, Metabolic Activation: NONE, Method: STANDARD PLATE); “active; positive” (Test System: AMES SALMONELLA TYPHIMURIUM, Strain/Indicator: TA100, Metabolic Activation: RAT LIVER S-9, AROCLOR, Method: STANDARD PLATE).

For the compound `Oc1ccc2ccc3c4c(cc5ccc1c2c53)[C@@H](O)[C@H](O)C=C4`, the mutagenic call was “active; positive” (Test System: AMES SALMONELLA TYPHIMURIUM, Strain/Indicator: TA97, Metabolic Activation: RAT, LIVER, S-9, AROCLOR 1254, Method: STANDARD PLATE); “active; positive” (Test System: AMES SALMONELLA TYPHIMURIUM, Strain/Indicator: TA98, Metabolic Activation: RAT, LIVER, S-9, AROCLOR 1254, Method: STANDARD PLATE); “active; positive” (Test System: AMES SALMONELLA TYPHIMURIUM, Strain/Indicator: TA100, Metabolic Activation: RAT, LIVER, S-9, AROCLOR 1254, Method: STANDARD PLATE); “active; positive” (Test System: AMES SALMONELLA TYPHIMURIUM, Strain/Indicator: TA1537, Metabolic Activation: RAT, LIVER, S-9, AROCLOR 1254, Method: STANDARD PLATE); “active; positive” (Test System: CHINESE HAMSTER V-79, Strain/Indicator: V-79/6-THIOGUANINE, Metabolic Activation: RAT, LIVER, S-9, AROCLOR 1254).
